# Measurements published in patent US20250270190A1, “KIT INHIBITORS” (BLUEPRINT MEDICINES CORPORATION, priority 2022, published 2025).
# Molecular target: T1, c-kit autophosphorylation (Phospho c-Kit Tyr721) in HMC 1.1 (exon 11/13) cells, V654A (Homo sapiens, UniProt P10721, V560G/V654A)
# T1 construct: endogenous in cells; host or cells: HMC 1.1 (exon 11/13) cells
# Test: pKIT Meso Scale Discovery (MSD) assay, inhibition of autophosphorylation of KIT, HMC1.1_V654A
# Assay type: cell-based
# Conditions: Table 1, cell line not named for Table 1, b1056 names pKIT HMC1.1_V654A, read-out: Code (IC50 for inhibition of autophosphorylation of KIT, pKIT MSD assay)
# Outline: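 HMC1.1 cells were serum-starved for 4 h in serum-free, iron-free, phenol red-free IMDM, then treated with compound in dose-response for 90 min at 37 °C. Staurosporine and DMSO served as controls. Lysates were analysed by MSD electrochemiluminescence immunoassay for phospho-c-Kit Tyr721, and % inhibition of autophosphorylation was derived.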
# T1 sequence (P10721 26-976 V560G/V654A): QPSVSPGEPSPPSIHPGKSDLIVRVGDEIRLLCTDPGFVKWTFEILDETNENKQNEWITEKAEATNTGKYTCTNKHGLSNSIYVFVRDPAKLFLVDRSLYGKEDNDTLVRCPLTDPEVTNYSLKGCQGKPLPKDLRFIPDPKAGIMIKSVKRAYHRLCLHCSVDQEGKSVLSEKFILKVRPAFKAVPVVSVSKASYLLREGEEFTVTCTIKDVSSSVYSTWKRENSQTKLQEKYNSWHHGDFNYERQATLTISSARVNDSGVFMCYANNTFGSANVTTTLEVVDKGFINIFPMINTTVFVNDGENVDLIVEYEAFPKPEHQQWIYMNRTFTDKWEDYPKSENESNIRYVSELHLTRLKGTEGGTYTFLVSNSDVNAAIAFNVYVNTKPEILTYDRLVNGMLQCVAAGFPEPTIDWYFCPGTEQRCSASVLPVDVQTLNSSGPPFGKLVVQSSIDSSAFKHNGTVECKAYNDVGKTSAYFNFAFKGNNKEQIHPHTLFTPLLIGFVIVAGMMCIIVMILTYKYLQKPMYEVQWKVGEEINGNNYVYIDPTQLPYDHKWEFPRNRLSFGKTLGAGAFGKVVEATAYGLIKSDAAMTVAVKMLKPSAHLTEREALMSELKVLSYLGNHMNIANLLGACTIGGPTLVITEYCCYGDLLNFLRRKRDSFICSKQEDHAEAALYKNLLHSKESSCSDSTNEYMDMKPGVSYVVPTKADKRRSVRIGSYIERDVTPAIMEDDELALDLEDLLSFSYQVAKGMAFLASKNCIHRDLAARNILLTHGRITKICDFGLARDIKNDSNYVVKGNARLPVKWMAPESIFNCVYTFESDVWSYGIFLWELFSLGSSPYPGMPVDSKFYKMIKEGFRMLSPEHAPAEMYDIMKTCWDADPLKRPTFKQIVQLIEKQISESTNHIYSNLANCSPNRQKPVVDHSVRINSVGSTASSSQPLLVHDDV
row,Structure (SMILES),IC50 [nM]
1,"CNc1cc(Nc2cc(N)nc(C(F)F)n2)ncc1C(=O)NC12CC(CO)(C1)C2 [Compound 121, 6-((6-amino-2-(difluoromethyl)pyrimidin-4-yl)amino)-N-(3-(hydroxymethyl)bicyclo[1.1.1]pentan-1-yl)-4-(methylamino)nicotinamide]",10 to 40
2,"Nc1cc(Nc2cc(NC3CC3)c(C(=O)N[C@H]3C[C@@H](O)C3)cn2)nc(C(F)F)n1 [Compound 123, 6-((6-amino-2-(difluoromethyl)pyrimidin-4-yl)amino)-4-(cyclopropylamino)-N-((1s,3s)-3-hydroxycyclobutyl)nicotinamide]",10 to 40
3,"Nc1cc(Nc2cc(OC3CC3)c(-c3cnn(C4CNC4)c3)cn2)nc(C(F)F)n1 [Compound 130, N4-(5-(1-(azetidin-3-yl)-1H-pyrazol-4-yl)-4-cyclopropoxypyridin-2-yl)-2-(difluoromethyl)pyrimidine-4,6-diamine]",10 to 40
4,"COc1cc(Nc2cc(N)nc(C(F)F)n2)ncc1-c1cnn(CCN2CCC2)c1 [Compound 137, N4-(5-(1-(2-(azetidin-1-yl)ethyl)-1H-pyrazol-4-yl)-4-methoxypyridin-2-yl)-2-(difluoromethyl)pyrimidine-4,6-diamine]",10 to 40
5,"Cn1cc(-c2cnc(Nc3cc(N)nc(C(F)F)n3)cc2OC[C@H]2C[C@H](O)C2)cn1 [Compound 144, (1r,3r)-3-(((2-((6-amino-2-(difluoromethyl)pyrimidin-4-yl)amino)-5-(1-methyl-1H-pyrazol-4-yl)pyridin-4-yl)oxy)methyl)cyclobutan-1-ol]",10 to 40
6,"Cn1cc(-c2cnc(Nc3cc(N)nc(C(F)F)n3)cc2OCC2CC(O)C2)cn1 (centres unmarked) [Compound 145, 3-(((2-((6-amino-2-(difluoromethyl)pyrimidin-4-yl)amino)-5-(1-methyl-1H-pyrazol-4-yl)pyridin-4-yl)oxy)methyl)cyclobutan-1-ol]",10 to 40
7,"CC(C)Nc1cc(Nc2cc(N)nc(C(F)F)n2)ncc1C(=O)NCc1ncco1 [Compound 148, 6-((6-amino-2-(difluoromethyl)pyrimidin-4-yl)amino)-4-(isopropylamino)-N-(oxazol-2-ylmethyl)nicotinamide]",< 10
8,"CCNc1cc(Nc2cc(N)nc(C(F)F)n2)ncc1C(=O)NC1CC2(CNC2)C1 [Compound 149, 6-((6-amino-2-(difluoromethyl)pyrimidin-4-yl)amino)-4-(ethylamino)-N-(2-azaspiro[3.3]heptan-6-yl)nicotinamide]",> 40
9,"COc1cc(Nc2cc(N)nc(C(F)F)n2)ncc1-c1cnn(CC(C)N(C)C)c1 (centres unmarked) [Compound 150, 2-(difluoromethyl)-N4-(5-(1-(2-(dimethylamino)propyl)-1H-pyrazol-4-yl)-4-methoxypyridin-2-yl)pyrimidine-4,6-diamine]",< 10
10,"CCNc1cc(Nc2cc(N)nc(C(F)F)n2)ncc1C(=O)NC12CC(CO)(C1)C2 [Compound 151, 6-((6-amino-2-(difluoromethyl)pyrimidin-4-yl)amino)-4-(ethylamino)-N-(3-(hydroxymethyl)bicyclo[1.1.1]pentan-1-yl)nicotinamide]",< 10
11,"CCOc1cc(Nc2cc(N)nc(C(F)F)n2)ncc1-c1cnn(CC(C)(C)O)c1 [Compound 152, 1-(4-(6-((6-amino-2-(difluoromethyl)pyrimidin-4-yl)amino)-4-ethoxypyridin-3-yl)-1H-pyrazol-1-yl)-2-methylpropan-2-ol]",< 10
12,"Nc1cc(Nc2cc(NC3CC3)c(C(=O)NCc3ccccn3)cn2)nc(C(F)F)n1 [Compound 153, 6-((6-amino-2-(difluoromethyl)pyrimidin-4-yl)amino)-4-(cyclopropylamino)-N-(pyridin-2-ylmethyl)nicotinamide]",< 10
13,"Nc1cc(Nc2cc(OC(F)(F)F)c(-c3cnn(C4CC4)c3)cn2)nc(C(F)F)n1 [Compound 154, N4-(5-(1-cyclopropyl-1H-pyrazol-4-yl)-4-(trifluoromethoxy)pyridin-2-yl)-2-(difluoromethyl)pyrimidine-4,6-diamine]",< 10
14,"CC(O)Cn1cc(-c2cnc(Nc3cc(N)nc(C(F)F)n3)cc2OC(F)F)cn1 (centres unmarked) [Compound 155, 1-(4-(6-((6-amino-2-(difluoromethyl)pyrimidin-4-yl)amino)-4-(difluoromethoxy)pyridin-3-yl)-1H-pyrazol-1-yl)propan-2-ol]",< 10
15,"CC(C)Nc1cc(Nc2cc(N)nc(C(F)F)n2)ncc1C(=O)NCc1ccccn1 [Compound 158, 6-((6-amino-2-(difluoromethyl)pyrimidin-4-yl)amino)-4-(isopropylamino)-N-(pyridin-2-ylmethyl)nicotinamide]",< 10
16,"C[C@@H](Oc1cc(Nc2cc(N)nc(C(F)F)n2)ncc1-c1cnn(C)c1)C(F)(F)F [Compound 163, (R)-2-(difluoromethyl)-N4-(5-(1-methyl-1H-pyrazol-4-yl)-4-((1,1,1-trifluoropropan-2-yl)oxy)pyridin-2-yl)pyrimidine-4,6-diamine]",< 10

# More lines, now with the values ahead:
row,IC50 [nM],Structure (SMILES)
1,< 10,"COc1cc(Nc2cc(N)nc(C(F)F)n2)ncc1-c1cnn(C(C)(C)CO)c1 [Compound 122, 2-(4-(6-((6-amino-2-(difluoromethyl)pyrimidin-4-yl)amino)-4-methoxypyridin-3-yl)-1H-pyrazol-1-yl)-2-methylpropan-1-ol]"
2,< 10,"Nc1cc(Nc2cc(OC(F)F)c(-c3cnn(C4CC4)c3)cn2)nc(C(F)F)n1 [Compound 127, N4-(5-(1-cyclopropyl-1H-pyrazol-4-yl)-4-(difluoromethoxy)pyridin-2-yl)-2-(difluoromethyl)pyrimidine-4,6-diamine]"
3,< 10,"CC(Oc1cc(Nc2cc(N)nc(C(F)F)n2)ncc1-c1cnn(C)c1)C(F)F (centres unmarked) [Compound 128, 2-(difluoromethyl)-N4-(4-((1,1-difluoropropan-2-yl)oxy)-5-(1-methyl-1H-pyrazol-4-yl)pyridin-2-yl)pyrimidine-4,6-diamine]"
4,< 10,"CC(C)Oc1cc(Nc2cc(N)nc([C@H](C)F)n2)ncc1-c1cnn(C2COC2)c1 [Compound 129, (S)-2-(1-fluoroethyl)-N4-(4-isopropoxy-5-(1-(oxetan-3-yl)-1H-pyrazol-4-yl)pyridin-2-yl)pyrimidine-4,6-diamine]"
5,< 10,"CCNc1cc(Nc2cc(N)nc(C(F)F)n2)ncc1C(=O)NCc1ccccn1 [Compound 131, 6-((6-amino-2-(difluoromethyl)pyrimidin-4-yl)amino)-4-(ethylamino)-N-(pyridin-2-ylmethyl)nicotinamide]"
6,< 10,"Cn1cc(-c2cnc(Nc3cc(N)nc(C(F)F)n3)cc2OCC(F)(F)F)cn1 [Compound 132, 2-(difluoromethyl)-N4-(5-(1-methyl-1H-pyrazol-4-yl)-4-(2,2,2-trifluoroethoxy)pyridin-2-yl)pyrimidine-4,6-diamine]"
7,< 10,"Nc1cc(Nc2cc(OC3CC3)c(-c3cnn(C4COC4)c3)cn2)nc(C(F)F)n1 [Compound 133, N4-(4-cyclopropoxy-5-(1-(oxetan-3-yl)-1H-pyrazol-4-yl)pyridin-2-yl)-2-(difluoromethyl)pyrimidine-4,6-diamine]"
8,< 10,"Nc1cc(Nc2cc(NC3CC3)c(C(=O)NCc3cocn3)cn2)nc(C(F)F)n1 [Compound 134, 6-((6-amino-2-(difluoromethyl)pyrimidin-4-yl)amino)-4-(cyclopropylamino)-N-(oxazol-4-ylmethyl)nicotinamide]"
9,< 10,"Nc1cc(Nc2cc(NC3CC3)c(C(=O)NCc3ncco3)cn2)nc(C(F)F)n1 [Compound 135, 6-((6-amino-2-(difluoromethyl)pyrimidin-4-yl)amino)-4-(cyclopropylamino)-N-(oxazol-2-ylmethyl)nicotinamide]"
10,< 10,"CNCCn1cc(-c2cnc(Nc3cc(N)nc(C(F)F)n3)cc2OC2CC2)cn1 [Compound 136, N4-(4-cyclopropoxy-5-(1-(2-(methylamino)ethyl)-1H-pyrazol-4-yl)pyridin-2-yl)-2-(difluoromethyl)pyrimidine-4,6-diamine]"
11,< 10,"COc1cc(Nc2cc(N)nc(C(F)F)n2)ncc1-c1cnn(C2CCN(C)C2)c1 (centres unmarked) [Compound 140, 2-(difluoromethyl)-N4-(4-methoxy-5-(1-(1-methylpyrrolidin-3-yl)-1H-pyrazol-4-yl)pyridin-2-yl)pyrimidine-4,6-diamine]"
12,< 10,"CCOc1cc(Nc2cc(N)nc(C(F)F)n2)ncc1-c1cnn(C2CN(C)C2)c1 [Compound 141, 2-(difluoromethyl)-N4-(4-ethoxy-5-(1-(1-methylazetidin-3-yl)-1H-pyrazol-4-yl)pyridin-2-yl)pyrimidine-4,6-diamine]"
13,< 10,"Cn1cc(-c2cnc(Nc3cc(N)nc(C(F)F)n3)cc2OC2CCCOC2)cn1 (centres unmarked) [Compound 142, 2-(difluoromethyl)-N4-(5-(1-methyl-1H-pyrazol-4-yl)-4-((tetrahydro-2H-pyran-3-yl)oxy)pyridin-2-yl)pyrimidine-4,6-diamine]"
14,< 10,"Cn1cc(-c2cnc(Nc3cc(N)nc(C(F)F)n3)cc2OCC2CCCO2)cn1 (centres unmarked) [Compound 143, 2-(difluoromethyl)-N4-(5-(1-methyl-1H-pyrazol-4-yl)-4-((tetrahydrofuran-2-yl)methoxy)pyridin-2-yl)pyrimidine-4,6-diamine]"
15,< 10,"COCCn1cc(-c2cnc(Nc3cc(N)nc(C(F)F)n3)cc2OC2CC2)cn1 [Compound 146, N4-(4-cyclopropoxy-5-(1-(2-methoxyethyl)-1H-pyrazol-4-yl)pyridin-2-yl)-2-(difluoromethyl)pyrimidine-4,6-diamine]"
16,< 10,"CC(C)Nc1cc(Nc2cc(N)nc(C(F)F)n2)ncc1C(=O)NCc1cocn1 [Compound 147, 6-((6-amino-2-(difluoromethyl)pyrimidin-4-yl)amino)-4-(isopropylamino)-N-(oxazol-4-ylmethyl)nicotinamide]"
